Source: paper PMC3298469, “A selective and potent CXCR3 antagonist SCH 546738 attenuates the development of autoimmune diseases and delays graft rejection” (BMC Immunology, 2012)

How the values were obtained:
Assay in all cases: GPCR counterscreen binding assay
Vasopressin (V2) = Vasopressin (V2) (Homo sapiens, UniProt P30518)
Procedure: (§1) SCH 546738 was tested at concentrations of 1-10 μM against a panel of 49 GPCR binding assays. Most of the assays were not affected by SCH 546738 (Table 2). […] In addition, SCH 546738 has a favourable pharmacokinetic profile in rodents. […] Therefore, SCH 546738 is suitable for in vivo preclinical studies.

Purinergic P2Y1_2 = conditions: @ 4 μM
Procedure: as §1

MCHR1 = MCHR1 (Homo sapiens, UniProt Q99705)
Procedure: as §1

Purinergic P2Y1 = Purinergic P2Y1 (Homo sapiens, UniProt P47900)
Sequence of Purinergic P2Y1 (P47900 whole entry): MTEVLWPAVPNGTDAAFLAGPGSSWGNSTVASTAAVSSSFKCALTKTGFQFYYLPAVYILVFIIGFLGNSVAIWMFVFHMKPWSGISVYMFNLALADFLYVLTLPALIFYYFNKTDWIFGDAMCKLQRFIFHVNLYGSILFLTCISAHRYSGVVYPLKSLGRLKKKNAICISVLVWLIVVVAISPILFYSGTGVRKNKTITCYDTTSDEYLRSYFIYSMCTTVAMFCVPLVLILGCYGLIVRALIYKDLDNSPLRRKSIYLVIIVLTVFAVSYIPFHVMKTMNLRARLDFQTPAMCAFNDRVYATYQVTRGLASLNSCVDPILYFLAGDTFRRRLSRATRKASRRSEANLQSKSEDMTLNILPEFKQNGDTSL
Procedure: as §1

Prokineticin PKR1 = Prokineticin PKR1 (Homo sapiens, UniProt Q8TCW9)
Procedure: as §1

MRGX1 = MRGX1 (Homo sapiens, UniProt Q96LB2)
Sequence of MRGX1 (Q96LB2 whole entry): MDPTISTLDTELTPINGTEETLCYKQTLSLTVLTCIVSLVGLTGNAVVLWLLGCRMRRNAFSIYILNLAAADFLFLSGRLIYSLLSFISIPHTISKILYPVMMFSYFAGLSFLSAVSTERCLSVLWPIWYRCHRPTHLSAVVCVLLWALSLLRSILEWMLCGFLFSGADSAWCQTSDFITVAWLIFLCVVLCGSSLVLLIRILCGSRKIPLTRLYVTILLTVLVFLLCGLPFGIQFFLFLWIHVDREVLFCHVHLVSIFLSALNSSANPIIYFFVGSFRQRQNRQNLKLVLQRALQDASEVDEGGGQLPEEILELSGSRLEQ
Procedure: as §1

CXCR1 = CXCR1 (Homo sapiens, UniProt P25024)
Procedure: as §1

VR1N = conditions: @ 4 μM
Procedure: as §1

Dopamine D4.2 = Dopamine D4.2 (Homo sapiens, UniProt P21917, DEL265-296)
Procedure: as §1

Muscarinic M3 = Muscarinic M3 (Homo sapiens, UniProt P20309)
Procedure: as §1

CCR1 = CCR1 (Homo sapiens, UniProt P32246)
Procedure: as §1

Dopamine D2 = Dopamine D2 (Homo sapiens, UniProt P14416)
Procedure: as §1

Delta opiate = Delta opiate (Homo sapiens, UniProt P41143)
Procedure: as §1

Adenosine A1 = Adenosine A1 (Homo sapiens, UniProt P30542)
Sequence of Adenosine A1 (P30542 whole entry): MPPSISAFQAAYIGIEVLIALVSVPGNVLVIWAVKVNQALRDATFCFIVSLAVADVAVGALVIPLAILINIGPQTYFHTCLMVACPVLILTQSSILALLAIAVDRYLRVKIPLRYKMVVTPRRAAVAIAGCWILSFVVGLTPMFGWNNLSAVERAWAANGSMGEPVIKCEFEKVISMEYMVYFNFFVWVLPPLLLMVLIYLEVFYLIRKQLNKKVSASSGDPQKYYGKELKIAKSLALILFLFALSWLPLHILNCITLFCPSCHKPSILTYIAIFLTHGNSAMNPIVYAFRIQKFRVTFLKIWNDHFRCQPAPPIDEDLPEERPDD
Procedure: as §1

Neuropeptide Y (Y1) = Neuropeptide Y (Y1) (Homo sapiens, UniProt P25929)
Sequence of Neuropeptide Y (Y1) (P25929 whole entry): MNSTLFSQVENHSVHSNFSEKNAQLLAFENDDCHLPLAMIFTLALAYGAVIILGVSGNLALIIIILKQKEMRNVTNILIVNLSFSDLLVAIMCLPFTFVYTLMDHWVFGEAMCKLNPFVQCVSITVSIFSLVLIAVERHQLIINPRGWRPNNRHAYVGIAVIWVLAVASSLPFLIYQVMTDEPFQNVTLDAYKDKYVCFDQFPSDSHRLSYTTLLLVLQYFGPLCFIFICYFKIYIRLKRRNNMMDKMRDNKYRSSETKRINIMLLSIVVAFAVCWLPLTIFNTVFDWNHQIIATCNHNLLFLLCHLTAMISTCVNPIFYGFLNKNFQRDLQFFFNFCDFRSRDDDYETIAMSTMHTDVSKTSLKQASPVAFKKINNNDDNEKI
Procedure: as §1

Muscarinic M4 = Muscarinic M4 (Homo sapiens, UniProt P08173)
Procedure: as §1

Adrenergic α1B = Adrenergic α1B (Homo sapiens, UniProt P35368)
Sequence of Adrenergic α1B (P35368 whole entry): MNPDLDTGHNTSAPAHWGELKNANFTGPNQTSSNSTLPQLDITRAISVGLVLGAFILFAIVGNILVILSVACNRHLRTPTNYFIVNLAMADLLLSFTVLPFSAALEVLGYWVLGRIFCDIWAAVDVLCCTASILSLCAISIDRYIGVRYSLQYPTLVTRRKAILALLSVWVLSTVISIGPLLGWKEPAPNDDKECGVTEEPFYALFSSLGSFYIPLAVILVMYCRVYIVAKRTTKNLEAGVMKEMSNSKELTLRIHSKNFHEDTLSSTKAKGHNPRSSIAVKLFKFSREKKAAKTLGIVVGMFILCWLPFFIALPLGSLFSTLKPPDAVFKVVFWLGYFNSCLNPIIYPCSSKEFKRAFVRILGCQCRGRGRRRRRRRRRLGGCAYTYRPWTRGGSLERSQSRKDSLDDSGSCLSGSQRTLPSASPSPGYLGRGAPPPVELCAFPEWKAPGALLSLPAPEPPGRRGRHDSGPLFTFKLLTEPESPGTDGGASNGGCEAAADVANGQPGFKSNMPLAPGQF
Procedure: as §1

Dopamine D1 = Dopamine D1 (Homo sapiens, UniProt P21728)
Procedure: as §1

Neuropeptide Y (Y4) = Neuropeptide Y (Y4) (Homo sapiens, UniProt P50391)
Procedure: as §1

Adrenergic α1A = Adrenergic α1A (Homo sapiens, UniProt P35348)
Procedure: as §1

Neuropeptide Y (Y2) = Neuropeptide Y (Y2) (Homo sapiens, UniProt P49146)
Procedure: as §1

Neurokinin NK2 = Neurokinin NK2 (Homo sapiens, UniProt P21452)
Procedure: as §1

Neurokinin NK1 = Neurokinin NK1 (Homo sapiens, UniProt P25103)
Procedure: as §1

Muscarinic M1 = Muscarinic M1 (Homo sapiens, UniProt P11229)
Procedure: as §1

Adrenergic α2B = Adrenergic α2B (Homo sapiens, UniProt P18089)
Procedure: as §1

CCR5 = CCR5 (Homo sapiens, UniProt P51681)
Procedure: as §1

MRGX2 = MRGX2 (Homo sapiens, UniProt Q96LB1)
Sequence of MRGX2 (Q96LB1 whole entry): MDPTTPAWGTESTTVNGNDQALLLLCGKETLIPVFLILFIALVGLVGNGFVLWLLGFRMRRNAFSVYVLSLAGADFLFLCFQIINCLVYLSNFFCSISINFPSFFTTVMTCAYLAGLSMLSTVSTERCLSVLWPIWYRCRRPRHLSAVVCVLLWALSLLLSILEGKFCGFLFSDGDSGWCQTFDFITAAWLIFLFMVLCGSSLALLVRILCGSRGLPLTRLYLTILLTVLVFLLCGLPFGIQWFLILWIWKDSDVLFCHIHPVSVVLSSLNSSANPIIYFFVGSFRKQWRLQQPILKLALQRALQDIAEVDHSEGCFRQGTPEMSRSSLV
Procedure: as §1

Adenosine A2A = Adenosine A2A (Homo sapiens, UniProt P29274)
Sequence of Adenosine A2A (P29274 whole entry): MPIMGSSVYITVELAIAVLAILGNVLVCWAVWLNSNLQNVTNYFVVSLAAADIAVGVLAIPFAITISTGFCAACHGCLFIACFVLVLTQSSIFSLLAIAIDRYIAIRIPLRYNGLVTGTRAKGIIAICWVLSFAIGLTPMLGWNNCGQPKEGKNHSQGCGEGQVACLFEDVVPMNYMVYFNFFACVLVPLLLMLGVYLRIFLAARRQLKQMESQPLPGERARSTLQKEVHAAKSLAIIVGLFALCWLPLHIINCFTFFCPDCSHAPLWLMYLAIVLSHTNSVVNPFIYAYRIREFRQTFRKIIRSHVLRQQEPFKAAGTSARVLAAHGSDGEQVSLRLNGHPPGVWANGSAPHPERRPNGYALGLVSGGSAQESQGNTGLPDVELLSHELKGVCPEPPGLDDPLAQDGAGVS
Procedure: as §1

CCR3 = CCR3 (Homo sapiens, UniProt P51677)
Procedure: as §1

Nociceptin NOP1 = Nociceptin NOP1 (Homo sapiens, UniProt P41146)
Procedure: as §1

Kappa opiate = Kappa opiate (Homo sapiens, UniProt P41145)
Sequence of Kappa opiate (P41145 whole entry): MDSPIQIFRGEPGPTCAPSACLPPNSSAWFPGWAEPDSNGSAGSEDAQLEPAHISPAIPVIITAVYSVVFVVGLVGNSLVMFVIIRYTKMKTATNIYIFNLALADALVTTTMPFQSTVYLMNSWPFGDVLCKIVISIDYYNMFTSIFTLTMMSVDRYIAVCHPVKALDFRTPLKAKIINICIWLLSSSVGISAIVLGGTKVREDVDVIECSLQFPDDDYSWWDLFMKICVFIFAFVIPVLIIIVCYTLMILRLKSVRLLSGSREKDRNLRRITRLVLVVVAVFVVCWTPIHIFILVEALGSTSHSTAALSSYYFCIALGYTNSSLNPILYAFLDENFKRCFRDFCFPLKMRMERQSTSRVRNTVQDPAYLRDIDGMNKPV
Procedure: as §1

Histamine H3 = Histamine H3 (Homo sapiens, UniProt Q9Y5N1)
Procedure: as §1

Adrenergic α2A = Adrenergic α2A (Homo sapiens, UniProt P08913)
Sequence of Adrenergic α2A (P08913 whole entry): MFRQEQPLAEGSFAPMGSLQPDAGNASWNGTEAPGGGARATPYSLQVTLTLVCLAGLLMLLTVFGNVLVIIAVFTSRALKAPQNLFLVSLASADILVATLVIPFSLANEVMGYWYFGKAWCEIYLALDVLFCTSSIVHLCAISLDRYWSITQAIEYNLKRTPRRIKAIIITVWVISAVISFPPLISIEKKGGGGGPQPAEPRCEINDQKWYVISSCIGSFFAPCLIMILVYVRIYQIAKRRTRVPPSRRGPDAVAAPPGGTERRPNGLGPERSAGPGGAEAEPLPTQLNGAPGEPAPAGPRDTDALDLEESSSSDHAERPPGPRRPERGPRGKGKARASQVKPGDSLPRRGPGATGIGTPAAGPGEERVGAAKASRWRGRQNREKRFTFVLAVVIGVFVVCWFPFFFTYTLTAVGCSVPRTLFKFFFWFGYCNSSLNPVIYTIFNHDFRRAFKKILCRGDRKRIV
Procedure: as §1

Prokineticin PKR2 = Prokineticin PKR2 (Homo sapiens, UniProt Q8NFJ6)
Procedure: as §1

Neurokinin NK3 = Neurokinin NK3 (Homo sapiens, UniProt P29371)
Sequence of Neurokinin NK3 (P29371 whole entry): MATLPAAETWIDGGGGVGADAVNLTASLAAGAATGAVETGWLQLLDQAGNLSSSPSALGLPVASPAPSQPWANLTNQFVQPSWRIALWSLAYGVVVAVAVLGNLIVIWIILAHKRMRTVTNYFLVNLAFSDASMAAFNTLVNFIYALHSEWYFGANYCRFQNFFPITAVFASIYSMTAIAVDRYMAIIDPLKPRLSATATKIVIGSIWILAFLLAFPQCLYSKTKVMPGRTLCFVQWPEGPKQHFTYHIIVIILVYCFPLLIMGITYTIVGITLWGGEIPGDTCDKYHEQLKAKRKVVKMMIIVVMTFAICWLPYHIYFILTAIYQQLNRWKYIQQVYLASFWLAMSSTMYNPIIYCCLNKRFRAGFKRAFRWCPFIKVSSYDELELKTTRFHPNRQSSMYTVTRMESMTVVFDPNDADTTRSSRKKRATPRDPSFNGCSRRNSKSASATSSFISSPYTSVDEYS
Procedure: as §1

Vasopressin (oxytocin) = Vasopressin (oxytocin) (Homo sapiens, UniProt P30559)
Procedure: as §1

Muscarinic M5 = Muscarinic M5 (Homo sapiens, UniProt P08912)
Procedure: as §1

Serotonergic 5HT1A = Serotonergic 5HT1A (Homo sapiens, UniProt P08908)
Procedure: as §1

Dopamine D3 = Dopamine D3 (Homo sapiens, UniProt P35462)
Procedure: as §1

Vasopressin (V1b) = Vasopressin (V1b) (Homo sapiens, UniProt P47901)
Procedure: as §1

Adrenergic α2C = Adrenergic α2C (Homo sapiens, UniProt P18825)
Procedure: as §1

CCR7 = CCR7 (Homo sapiens, UniProt P32248)
Procedure: as §1

CCR2 = CCR2 (Homo sapiens, UniProt P41597)
Procedure: as §1

CXCR2 = CXCR2 (Homo sapiens, UniProt P25025)
Sequence of CXCR2 (P25025 whole entry): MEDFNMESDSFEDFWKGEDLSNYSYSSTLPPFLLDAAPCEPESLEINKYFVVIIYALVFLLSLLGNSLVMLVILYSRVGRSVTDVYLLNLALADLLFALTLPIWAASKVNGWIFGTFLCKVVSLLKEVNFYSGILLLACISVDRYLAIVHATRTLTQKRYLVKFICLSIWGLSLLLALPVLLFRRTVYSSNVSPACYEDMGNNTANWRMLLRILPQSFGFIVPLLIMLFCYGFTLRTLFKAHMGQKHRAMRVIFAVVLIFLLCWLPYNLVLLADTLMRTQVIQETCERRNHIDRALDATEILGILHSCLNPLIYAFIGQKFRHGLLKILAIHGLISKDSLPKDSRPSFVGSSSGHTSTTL
Procedure: as §1

Sequence of Vasopressin (V2) (P30518 whole entry): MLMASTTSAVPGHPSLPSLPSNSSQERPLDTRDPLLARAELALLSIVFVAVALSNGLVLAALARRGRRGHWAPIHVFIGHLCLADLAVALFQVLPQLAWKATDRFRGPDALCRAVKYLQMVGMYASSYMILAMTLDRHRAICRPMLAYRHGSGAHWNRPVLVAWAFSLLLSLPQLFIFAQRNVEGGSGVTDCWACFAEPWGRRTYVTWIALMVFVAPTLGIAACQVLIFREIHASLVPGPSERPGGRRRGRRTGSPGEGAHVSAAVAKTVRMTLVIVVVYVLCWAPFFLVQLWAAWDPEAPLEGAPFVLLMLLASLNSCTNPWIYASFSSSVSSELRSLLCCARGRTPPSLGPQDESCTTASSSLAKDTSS

## CC[C@H]1CN(c2nc(N)c(C(N)=O)nc2Cl)CCN1C1CCN(Cc2ccc(Cl)cc2)CC1 [SCH 546738]
Vasopressin (V2)
  inhibition at 4 µM: 18%
Purinergic P2Y1_2
  Inhibition (%): 10% @ 4 μM
MCHR1
  inhibition at 10 µM: 0%
Purinergic P2Y1
  inhibition at 4 µM: 16%
Prokineticin PKR1
  inhibition at 4 µM: -1%
MRGX1
  inhibition at 4 µM: 1%
CXCR1
  inhibition at 10 µM: 13%
VR1N
  Inhibition (%): 0% @ 4 μM
Dopamine D4.2
  inhibition at 10 µM: 18%
Muscarinic M3
  inhibition at 4 µM: 27%
CCR1
  inhibition at 10 µM: 9%
Dopamine D2
  inhibition at 4 µM: 41%
Delta opiate
  inhibition at 4 µM: 12%
Adenosine A1
  inhibition at 4 µM: 0%
Neuropeptide Y (Y1)
  inhibition at 4 µM: 4%
Muscarinic M4
  inhibition at 4 µM: 30%
Adrenergic α1B
  inhibition at 2 µM: 25%
Dopamine D1
  inhibition at 4 µM: 6%
Neuropeptide Y (Y4)
  inhibition at 4 µM: -2%
Adrenergic α1A
  inhibition at 2 µM: 11%
Neuropeptide Y (Y2)
  inhibition at 4 µM: -9%
Neurokinin NK2
  inhibition at 2 µM: 0%
Neurokinin NK1
  inhibition at 2 µM: 15%
Muscarinic M1
  inhibition at 4 µM: 22%
Adrenergic α2B
  inhibition at 2 µM: -2%
CCR5
  inhibition at 10 µM: 10%
MRGX2
  inhibition at 4 µM: 25%
Adenosine A2A
  inhibition at 4 µM: 3%
CCR3
  inhibition at 10 µM: 17%
Nociceptin NOP1
  inhibition at 4 µM: -21%
Kappa opiate
  inhibition at 4 µM: 7%
Histamine H3
  inhibition at 2 µM: 29%
Adrenergic α2A
  inhibition at 1 µM: 45%
Prokineticin PKR2
  inhibition at 4 µM: -5%
Neurokinin NK3
  inhibition at 2 µM: 0%
Vasopressin (oxytocin)
  inhibition at 4 µM: 12%
Muscarinic M5
  inhibition at 4 µM: 28%
Serotonergic 5HT1A
  inhibition at 4 µM: 20%
Dopamine D3
  inhibition at 10 µM: 18%
Vasopressin (V1b)
  inhibition at 4 µM: 15%
Adrenergic α2C
  inhibition at 1 µM: 76%
CCR7
  inhibition at 10 µM: 0%
CCR2
  inhibition at 10 µM: 9%
CXCR2
  inhibition at 10 µM: 20%
